Columns and labels:
Type in all cases: biochemical
Conditions in all cases: Table 5
[1] = molecular target: JMJD2C (Homo sapiens (Human), UniProt Q9H3R0); test: JMJD2C in vitro enzyme inhibition assay (TR-FRET)
Source text: (§1) This assay determines the ability of a test compound to inhibit Jarid1B, JMJD2C and JMJD3 demethylase activity. Baculovirus expressed Jarid1B (GenBank Accession #NM-006618, AA 2-751) was purchased from BPS Bioscience (Cat #50121) or custom made by MolecularThroughput. Baculovirus expressed JMJD2C (GenBank Accession #BC143571, AA 2-372) was purchased from BPS Bioscience (Cat#50105). Baculovirus expressed JMJD3 (GenBank Accession #NM-001080424, AA1043-end) was purchased from BPS Bioscience (Cat#50115).
The ability of test compounds to inhibit the activity of JMJD2C was determined in 384-well plate format under the following reaction conditions: 0.3 nM JMJD2C, 300 nM H3K9me3-biotin labeled peptide (Anaspec cat #64360), 2 μM alpha-ketoglutaric acid in assay buffer of 50 mM HEPES, pH7.3, 0.005% Brij35, 0.5 mM TCEP, 0.2 mg/ml BSA, 50 μM sodium L-ascorbate, and 2 μM ammonium iron(II) sulfate. Reaction product was determined quantitatively by TR-FRET after the addition of detection reagent Phycolink Streptavidin-allophycocyanin (Prozyme) and Europium-anti-di-methylated histone H3 lysine 9 (H3K9me2) antibody (PerkinElmer) in the presence of 5 mM EDTA in LANCE detection buffer (PerkinElmer) at a final concentration of 50 nM and 1 nM, respectively. […]

[2] = molecular target: Jarid1B (Homo sapiens (Human), UniProt Q9UGL1); test: Jarid1B in vitro enzyme inhibition assay (TR-FRET)
Chain of Jarid1B (Q9UGL1 2-751): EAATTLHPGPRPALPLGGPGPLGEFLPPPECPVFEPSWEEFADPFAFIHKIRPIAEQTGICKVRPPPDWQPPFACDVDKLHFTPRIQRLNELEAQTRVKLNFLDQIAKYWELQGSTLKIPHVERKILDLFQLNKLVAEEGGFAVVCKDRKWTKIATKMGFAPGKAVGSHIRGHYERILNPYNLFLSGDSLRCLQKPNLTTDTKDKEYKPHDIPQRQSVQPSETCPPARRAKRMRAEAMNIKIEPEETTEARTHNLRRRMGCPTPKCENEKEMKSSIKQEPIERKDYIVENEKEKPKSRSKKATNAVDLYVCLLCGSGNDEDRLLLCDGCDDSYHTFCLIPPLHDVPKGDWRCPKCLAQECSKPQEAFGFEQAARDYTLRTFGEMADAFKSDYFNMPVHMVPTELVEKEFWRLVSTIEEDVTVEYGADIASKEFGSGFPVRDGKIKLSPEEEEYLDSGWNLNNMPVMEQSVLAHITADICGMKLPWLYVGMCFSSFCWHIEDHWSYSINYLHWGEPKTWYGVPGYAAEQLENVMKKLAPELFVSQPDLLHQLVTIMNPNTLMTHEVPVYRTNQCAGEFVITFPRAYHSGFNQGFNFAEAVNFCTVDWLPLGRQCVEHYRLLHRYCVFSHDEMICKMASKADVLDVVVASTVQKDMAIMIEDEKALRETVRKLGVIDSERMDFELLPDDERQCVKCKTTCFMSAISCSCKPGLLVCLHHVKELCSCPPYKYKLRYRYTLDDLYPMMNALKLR
Source text: as §1
The ability of test compounds to inhibit the activity of Jarid1B was determined in 384-well plate format under the following reaction conditions: 0.8 nM Jarid1B, 300 nM H3K4me3-biotin labeled peptide (Anaspec cat #64357), 2 μM alpha-ketoglutaric acid in assay buffer of 50 mM HEPES, pH7.3, 0.005% Brij35, 0.5 mM TCEP, 0.2 mg/ml BSA, 50 μM sodium L-ascorbate, and 2 μM ammonium iron(II) sulfate. Reaction product was determined quantitatively by TR-FRET after the addition of detection reagent Phycolink Streptavidin-allophycocyanin (Prozyme) and Europium-anti-mono- or di-methylated histone H3 lysine 4 (H3K4me1-2) antibody (PerkinElmer) in the presence of 5 mM EDTA in LANCE detection buffer (PerkinElmer) at a final concentration of 25 nM and 1 nM, respectively. […]

[3] = molecular target: JMJD3 (Homo sapiens, UniProt O15054); test: JMJD3 in vitro enzyme inhibition assay (AlphaScreen)
Source text: as §1
The ability of test compounds to inhibit the activity of JMJD3 was determined in 384-well plate format under the following reaction conditions: 1 nM JMJD3, 250 nM H3K27me3-biotin labeled peptide (Anaspec cat #64367), 1 μM alpha-ketoglutaric acid in assay buffer of 50 mM HEPES, pH7.3, 0.005% Brij35, 0.5 mM TCEP, 0.2 mg/ml BSA, 50 μM sodium L-ascorbate, 5 μM ammonium iron(II) sulfate. Reaction product is determined quantitatively by AlphaScreen detection after the addition of detection reagents anti-H3K27me1 antibody, 5 μg/ml AlphaScreen® Streptavidin-coated Donor beads, and 5 μg/ml AlphaScreen® Protein A Acceptor beads in 50 mM HEPES, pH7.3, 10 mM NaCl, 0.005% Brij35, 10 mM EDTA, 2 mg/ml BSA. […]

Chain of JMJD2C (Q9H3R0 2-372): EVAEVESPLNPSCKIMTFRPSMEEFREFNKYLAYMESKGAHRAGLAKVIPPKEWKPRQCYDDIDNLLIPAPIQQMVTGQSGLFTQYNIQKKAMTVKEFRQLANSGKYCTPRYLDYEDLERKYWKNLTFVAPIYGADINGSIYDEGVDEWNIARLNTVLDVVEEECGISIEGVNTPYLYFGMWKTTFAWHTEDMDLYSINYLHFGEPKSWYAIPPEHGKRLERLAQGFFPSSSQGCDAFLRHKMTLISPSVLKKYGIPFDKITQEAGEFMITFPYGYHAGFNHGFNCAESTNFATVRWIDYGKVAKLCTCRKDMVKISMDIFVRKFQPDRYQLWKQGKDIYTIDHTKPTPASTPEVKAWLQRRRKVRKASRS

Which results are given for “2-{1-[(6-fluoro-1,2,3,4- tetrahydronaphthalen-1-yl)methyl]-1H- imidazol-4-yl}-4-[5-(trifluoromethyl)-1H 1,2,3-triazol-4-yl]pyridine [Example 100]”?
IC50 [1]: > 10 µM; IC50 [2]: ≤ 0.1 µM; IC50 [3]: > 10 µM

Source: patent publication US9896436B2, “Histone demethylase inhibitors” (Celgene Quanticel Research, Inc., priority 2014, dated 2018)
